Converted amounts (≈) assume the structure as drawn.
Legend:
[1] = system: Pseudomonas aeruginosa (RCMB 010043); assay: Well diffusion assay (inhibition zone); assay type: cell-based; conditions: RCMB010043, 5 mg/mL in DMSO, Gm-ve, read-out: Inhibition Zone (IZ) diameter, P.A
How it was run: (§1)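 Agar well diffusion with 10 mm wells, nutrient agar for bacteria and malt extract agar for fungi. Plates were incubated 24-48 h at 37 °C for bacteria or 28 °C for fungi. Inhibition zone diameters were measured in mm, in triplicate.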

[2] = system: Pseudomonas aeruginosa (RCMB 010043); assay: MIC by serial dilution method; assay type: cell-based; conditions: RCMB010043, Gm-ve, read-out: Minimum inhibitory concentration, MIC, P.A
How it was run: (§2)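 Compounds were first screened by the agar diffusion well method, and […] MICs were then determined by serial dilution. Ampicillin, ciprofloxacin, gentamicin and amphotericin B served as positive control drugs.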

caspase-3 and -7 = assay: Caspase-Glo 3/7 caspase activity assay; assay type: cell-based, human; conditions: compared to control and doxorubicin; MCF-7 and HCT-116; compounds at IC50 concentration, 48 h
Procedure: To measure caspase-3 and -7 activities, a luminescent Caspase-Glo 3/7 assay was performed. HCT116 and MCF-7 cells were seeded onto black 96-well plates at a density of 3,500 cells/well. […] After 48 h a Caspase-Glo 3/7 Assay (Promega) was performed according to the manufacturer's instructions. After adding 100 μL of Caspase 3/7 Glo Reagent, cells were incubated for 2.5 h at room temperature. The luminescence was measured using a multi-plate reader (Synergy 4, BioTek) with an integration time of 1 second per well. The values are the means ± SD of three sets of experiments.
The initial reported assay of 4-aryl-4H-chromene series were identified as apoptosis inducers via caspase activation (Elinson et al., 2010[20]; Sondhi et al., 2010[58]; Thareja et al., 2010[60]; Trinchieri, 2015[61]). Furthermore, it was important to investigate the antiproliferative effect of the novel synthesized compounds 4a, 4b, and 4c using caspase-3 and -7 activities compared to doxorubicin and vehicle control drug in the corresponding cancer cell lines MCF-7 and HCT-116.

[3] = system: Candida albicans (RCMB 05036); assay: Well diffusion assay (inhibition zone); assay type: cell-based; conditions: RCMB05036, 5 mg/mL in DMSO, fungi, read-out: Inhibition Zone (IZ) diameter, C.A
How it was run: as §1

[4] = system: Candida albicans (RCMB 05036); assay: MIC by serial dilution method; assay type: cell-based; conditions: RCMB05036, fungi, read-out: Minimum inhibitory concentration, MIC, C.A
How it was run: as §2

| Compound | zone of inhibition at 5000 µg/mL [1] | MIC [2] | elevation in the caspase activity (caspase-3 and -7) | zone of inhibition at 5000 µg/mL [3] | MIC [4] |
| --- | --- | --- | --- | --- | --- |
| N#CC1=C(N)Oc2c(N)cc3ccccc3c2C1c1ccc(Cl)cc1 (stereo not drawn) [4b, 3,5-diamino-1-(4-chlorophenyl)-1H-benzo[f]chromene-2-carbonitrile] | 13.1 mm | 125 µg/mL (≈ 359 µM) | 2-3 folds |  |  |
| N#CC1=C(N)Oc2c(N)cc3ccccc3c2C1c1ccc(F)cc1 (stereo not drawn) [4a, 3,5-diamino-1-(4-fluorophenyl)-1H-benzo[f]chromene-2-carbonitrile] |  |  |  | 9.4 mm | 125 µg/mL (≈ 377 µM) |
| Cc1ccc(C2C(C#N)=C(N)Oc3c(N)cc4ccccc4c32)cc1 (stereo not drawn) [4c, 3,5-diamino-1-(p-tolyl)-1H-benzo[f]chromene-2-carbonitrile] |  |  | 2-3 folds |  |  |
